{"source": "ChEMBL document CHEMBL4619709", "about": "“Synthesis and in-vitro anti-cancer evaluations of multi-methoxylated asymmetrical diarylpentanoids as intrinsic apoptosis inducer against colorectal cancer” (Bioorg Med Chem Lett, 2020)", "key": {"[1]": {"system": "RKO", "experiment": "Induction of apoptosis in human RKO cells at 0.625 to 5 uM after by Annexin V-FITC/PI staining based flow cytometry", "type": "functional, cell-based", "conditions": "TDE = time-dependent effect"}, "[2]": {"system": "RKO", "experiment": "Induction of cell cycle arrest in human RKO cells assessed as accumulation at G0/G1 phase at 2.5 uM after 24 hrs by PI-staining based flow cytometry (reference value: 52%)", "type": "functional"}, "[3]": {"system": "RKO", "experiment": "Induction of apoptosis in human RKO cells assessed as reduction in procaspase-9 expression after 24 to 72 hrs by Western blot analysis", "type": "functional, cell-based"}, "[4]": {"system": "RKO", "experiment": "Induction of apoptosis in human RKO cells assessed as reduction in procaspase-7 expression after 24 to 72 hrs by Western blot analysis", "type": "functional, cell-based"}, "[5]": {"system": "RKO", "experiment": "Induction of apoptosis in human RKO cells assessed as reduction in bcl-2 expression after 24 hrs by Western blot analysis", "type": "functional, cell-based"}, "[6]": {"system": "HT-29", "experiment": "Antiproliferative activity against human HT-29 cells assessed as reduction in cell viability after 72 hrs by MTT assay", "type": "functional, cell-based", "conditions": "HT-29, 72 h"}, "[7]": {"system": "RKO", "experiment": "Induction of apoptosis in human RKO cells assessed as reduction in bcl-xl expression after 24 hrs by Western blot analysis", "type": "functional, cell-based"}, "[8]": {"system": "NHDF", "experiment": "Cytotoxicity against human NHDF cells assessed as reduction in cell viability", "type": "cell-based"}, "[9]": {"system": "SW-620", "experiment": "Antiproliferative activity against human SW620 cells assessed as reduction in cell viability after 72 hrs by MTT assay", "type": "functional, cell-based", "conditions": "SW-620, 72 h"}, "[10]": {"system": "RKO", "experiment": "Induction of cell cycle arrest in human RKO cells assessed as accumulation at S phase at 0.625 uM after 24 hrs by PI-staining based flow cytometry (reference value: 28%)", "type": "functional"}, "[11]": {"system": "RKO", "experiment": "Induction of cell cycle arrest in human RKO cells assessed as accumulation at G2/M phase at 2.5 uM after 24 hrs by PI-staining based flow cytometry (reference value: 20%)", "type": "functional"}, "[12]": {"system": "T84", "experiment": "Antiproliferative activity against human T84 cells assessed as reduction in cell viability after 72 hrs by MTT assay", "type": "functional, cell-based", "conditions": "T84, 72 h"}, "[13]": {"system": "RKO", "experiment": "Induction of apoptosis in human RKO cells after 24 to 72 hrs by Annexin V-FITC/PI staining based flow cytometry", "type": "functional, cell-based"}, "[14]": {"system": "RKO", "experiment": "Antiproliferative activity against human RKO cells assessed as reduction in cell viability after 72 hrs by MTT assay", "type": "functional, cell-based"}, "[15]": {"system": "RKO", "experiment": "Induction of cell cycle arrest in human RKO cells assessed as accumulation at S phase at 2.5 uM after 24 hrs by PI-staining based flow cytometry (reference value: 28%)", "type": "functional"}, "[16]": {"system": "RKO", "experiment": "Induction of apoptosis in human RKO cells assessed as increase in caspase-9 expression after 24 to 72 hrs by Western blot analysis", "type": "functional, cell-based"}, "[17]": {"experiment": "Therapeutic index, ratio of IC50 for human NHDF cells to IC50 for human SW620 cells after 72 hrs", "type": "toxicity", "conditions": "NHDF cells versus SW620 cells, read-out: Ratio IC50"}, "[18]": {"system": "RKO", "experiment": "Induction of cell cycle arrest in human RKO cells assessed as accumulation at G2/M phase at 1.25 uM after 24 hrs by PI-staining based flow cytometry (reference value: 20%)", "type": "functional"}, "[19]": {"system": "NCI-H508", "experiment": "Antiproliferative activity against human NCI-H508 cells assessed as reduction in cell viability after 72 hrs by MTT assay", "type": "functional, cell-based", "conditions": "NCI-H508, 72 h"}, "[20]": {"system": "RKO", "experiment": "Induction of cell cycle arrest in human RKO cells assessed as accumulation at S phase at 1.25 uM after 24 hrs by PI-staining based flow cytometry (reference value: 28%)", "type": "functional"}, "[21]": {"experiment": "Therapeutic index, ratio of IC50 for human NHDF cells to IC50 for human T84 cells after 72 hrs", "type": "toxicity", "conditions": "NHDF cells versus T84 cells, read-out: Ratio IC50"}, "[22]": {"experiment": "Therapeutic index, ratio of IC50 for human NHDF cells to IC50 for human LoVo cells after 72 hrs", "type": "toxicity", "conditions": "NHDF cells versus LoVo cells, read-out: Ratio IC50"}, "[23]": {"system": "RKO", "experiment": "Antiproliferative activity against human RKO cells at 10 uM after 72 hrs by MTT assay", "type": "functional, cell-based"}, "[24]": {"system": "RKO", "experiment": "Induction of cell cycle arrest in human RKO cells assessed as accumulation at G0/G1 phase at 1.25 uM after 24 hrs by PI-staining based flow cytometry (reference value: 52%)", "type": "functional"}, "[25]": {"system": "LoVo", "experiment": "Antiproliferative activity against human LoVo cells assessed as reduction in cell viability after 72 hrs by MTT assay", "type": "functional, cell-based"}, "[26]": {"system": "RKO", "experiment": "Induction of ROS generation in human RKO cells by fluorescence based assay", "type": "functional, cell-based"}, "[27]": {"system": "RKO", "experiment": "Inhibition of colony formation in human RKO cells after 9 days by crystal violet staining based assay", "type": "functional, cell-based"}, "[28]": {"system": "LoVo", "experiment": "Antiproliferative activity against human LoVo cells at 10 uM after 72 hrs by MTT assay", "type": "functional, cell-based"}, "[29]": {"experiment": "Therapeutic index, ratio of IC50 for human NHDF cells to IC50 for human NCI-H508 cells after 72 hrs", "type": "toxicity", "conditions": "NHDF cells versus NCI-H508 cells, read-out: Ratio IC50"}, "[30]": {"system": "HT-29", "experiment": "Antiproliferative activity against human HT-29 cells at 10 uM after 72 hrs by MTT assay", "type": "functional, cell-based"}, "[31]": {"system": "RKO", "experiment": "Inhibition of colony formation in human RKO cells at 1.25 to 5 uM after 9 days by crystal violet staining based assay", "type": "functional, cell-based"}, "[32]": {"experiment": "Therapeutic index, ratio of IC50 for human NHDF cells to IC50 for human RKO cells after 72 hrs", "type": "toxicity", "conditions": "NHDF cells versus RKO cells, read-out: Ratio IC50"}, "[33]": {"system": "NCI-H508", "experiment": "Antiproliferative activity against human NCI-H508 cells at 10 uM after 72 hrs by MTT assay", "type": "functional, cell-based"}, "[34]": {"system": "RKO", "experiment": "Induction of cell cycle arrest in human RKO cells assessed as accumulation at G0/G1 phase at 0.625 uM after 24 hrs by PI-staining based flow cytometry (reference value: 52%)", "type": "functional"}, "[35]": {"system": "SW-620", "experiment": "Antiproliferative activity against human SW620 cells at 10 uM after 72 hrs by MTT assay", "type": "functional, cell-based"}, "[36]": {"system": "RKO", "experiment": "Induction of apoptosis in human RKO cells assessed as reduction in bcl-xl expression after 72 hrs by Western blot analysis", "type": "functional, cell-based"}, "[37]": {"system": "RKO", "experiment": "Inhibition of colony formation in human RKO cells at 0.625 uM treated for 9 days by crystal violet staining based assay", "type": "functional, cell-based"}, "[38]": {"system": "RKO", "experiment": "Induction of apoptosis in human RKO cells assessed as increase in bad protein expression after 24 to 72 hrs by Western blot analysis", "type": "functional, cell-based"}, "[39]": {"experiment": "Therapeutic index, ratio of IC50 for human NHDF cells to IC50 for human HT-29 cells after 72 hrs", "type": "toxicity", "conditions": "NHDF cells versus HT-29 cells, read-out: Ratio IC50"}, "[40]": {"system": "RKO", "experiment": "Induction of apoptosis in human RKO cells assessed as increase in bax protein expression after 24 to 72 hrs by Western blot analysis", "type": "functional, cell-based"}, "[41]": {"system": "RKO", "experiment": "Induction of cell cycle arrest in human RKO cells assessed as accumulation at G2/M phase at 0.625 uM after 24 hrs by PI-staining based flow cytometry (reference value: 20%)", "type": "functional"}, "[42]": {"system": "RKO", "experiment": "Induction of apoptosis in human RKO cells assessed as reduction in procaspase-3 expression after 24 to 72 hrs by Western blot analysis", "type": "functional, cell-based"}, "[43]": {"system": "T84", "experiment": "Antiproliferative activity against human T84 cells at 10 uM after 72 hrs by MTT assay", "type": "functional, cell-based"}}, "note": "Calls of active or inactive are those of the source. The rule behind the calls is not given here.", "data": [{"molecule": "COc1cc(/C=C2\\CCC/C(=C\\c3ccc(O)c(Cl)c3)C2=O)cc(OC)c1OC", "values": [{"measurement": "Activity", "setting": "[1]", "value": "Tde"}, {"measurement": "Activity", "setting": "[2]", "value": 27, "unit": "%"}, {"measurement": "Activity", "setting": "[3]", "value": "Active"}, {"measurement": "Activity", "setting": "[4]", "value": "Active"}, {"measurement": "Activity", "setting": "[5]", "value": "Active"}, {"measurement": "IC50", "setting": "[6]", "value": 3400, "unit": "nM"}, {"measurement": "Activity", "setting": "[7]", "value": "Active"}, {"measurement": "IC50", "setting": "[8]", "value": 6900, "unit": "nM"}, {"measurement": "IC50", "setting": "[9]", "value": 800, "unit": "nM"}, {"measurement": "Activity", "setting": "[10]", "value": 27, "unit": "%"}, {"measurement": "Activity", "setting": "[11]", "value": 50, "unit": "%"}, {"measurement": "IC50", "setting": "[12]", "value": 1800, "unit": "nM"}, {"measurement": "Activity", "setting": "[13]", "value": "Dose-dependent effect"}, {"measurement": "IC50", "setting": "[14]", "value": 700, "unit": "nM"}, {"measurement": "Activity", "setting": "[15]", "value": 23, "unit": "%"}, {"measurement": "Activity", "setting": "[16]", "value": "Active"}, {"measurement": "selectivity ratio at 72 h", "setting": "[17]", "value": "1.8 to 9.9"}, {"measurement": "Activity", "setting": "[18]", "value": 28, "unit": "%"}, {"measurement": "IC50", "setting": "[19]", "value": 4000, "unit": "nM"}, {"measurement": "Activity", "setting": "[20]", "value": 20, "unit": "%"}, {"measurement": "selectivity ratio at 72 h", "setting": "[21]", "value": "1.8 to 9.9"}, {"measurement": "selectivity ratio at 72 h", "setting": "[22]", "value": "1.8 to 9.9"}, {"measurement": "Activity", "setting": "[23]", "value": "Active"}, {"measurement": "Activity", "setting": "[24]", "value": 52, "unit": "%"}, {"measurement": "IC50", "setting": "[25]", "value": 1100, "unit": "nM"}, {"measurement": "Activity", "setting": "[26]", "value": "Dose-dependent effect"}, {"measurement": "inhibition", "setting": "[27]", "value": "Dose-dependent effect"}, {"measurement": "Activity", "setting": "[28]", "value": "Active"}, {"measurement": "selectivity ratio at 72 h", "setting": "[29]", "value": "1.8 to 9.9"}, {"measurement": "Activity", "setting": "[30]", "value": "Active"}, {"measurement": "inhibition", "setting": "[31]", "value": "Active"}, {"measurement": "selectivity ratio at 72 h", "setting": "[32]", "value": "1.8 to 9.9"}, {"measurement": "Activity", "setting": "[33]", "value": "Active"}, {"measurement": "Activity", "setting": "[34]", "value": 52, "unit": "%"}, {"measurement": "Activity", "setting": "[35]", "value": "Active"}, {"measurement": "Activity", "setting": "[36]", "value": "inactive"}, {"measurement": "inhibition", "setting": "[37]", "value": "inactive"}, {"measurement": "Activity", "setting": "[38]", "value": "Active"}, {"measurement": "selectivity ratio at 72 h", "setting": "[39]", "value": "1.8 to 9.9"}, {"measurement": "Activity", "setting": "[40]", "value": "Active"}, {"measurement": "Activity", "setting": "[41]", "value": 21, "unit": "%"}, {"measurement": "Activity", "setting": "[42]", "value": "Active"}, {"measurement": "Activity", "setting": "[43]", "value": "Active"}]}]}
